From PMC7948405, “Small-molecule control of neurotransmitter sulfonation” (The Journal of Biological Chemistry, 2020)

Target: T1, SULT1A3 (Homo sapiens, UniProt P0DMM9)
T1 construct: E. coli–optimized SULT coding regions were inserted into a pGEX-6P expression vector; N-His/GST/MBP triple tag (PreScission-cleavable) (N, cleaved yes); made in house; host or cells: E. coli BL21(DE3)
Experiment: Pre-steady-state (stopped-flow fluorescence) binding of PAP to SULT1A3 complexes
Conditions: E·CMP13 vs E
Excerpt: Figure 4 The inhibition mechanism. A, equilibrium binding. Binding was monitored via ligand-induced changes in SULT1A3 intrinsic fluorescence (λex = 290 nm, λem = 335 nm). […] Each dot represents the average of three independent titrations. Lines passing through the data represent the outcomes predicted by least-squares fitting of the averaged data to a single-binding-site model. B, representative PAP-binding reaction. PAP binding was monitored using a stopped-flow fluorimeter (λex = 290 nm, λem ≥ 330 nm (cutoff filter)). Reactions were initiated by rapidly mixing (1:1 v/v) a solution containing SULT1A3 (30 nM, dimer), CMP13 (1.0 μM, 100 × Kd), Tam (160 μM, 200 × Kd), KPO4 (50 mM), pH 7.5, 25(±2) °C, with a solution that was identical except that it lacked SULT1A3 and contained PAP (2.0 μM). The average of five independent progress curves shown and the kobs was obtained by fitting the data to a single exponential. C, pre–steady-state binding. PAP binding was monitored as described for panel B. Reactions were initiated by mixing (1:1 v/v) a solution containing SULT1A3 (30 nM, dimer), CMP13 [0 μM (black dots) or 1.0 μM, 100 × Kd (red and blue dots)], Tam [0 μM (black and blue dots) or 160 μM, 200 × Kd (red dots)], KPO4 (50 mM), pH 7.5, 25(±2) °C, with a solution that was identical except that it lacked SULT1A3 and contained PAP at twice the indicated concentrations. Each kobs value was determined in triplicate, and the averaged values are shown. kon and koff are given, respectively, by the slopes and intercepts obtained from linear least-squares fitting of the kobs vs [PAP] plot. PAP, 3′-phosphoadenosine-5′-phosphate; SULT1A3, sulfotransferase 1A3; Tam, 4-hydroxy-tamoxifen.
To resolve this uncertainty, PAP on- and off-rate constants for a series of open and closed complexes were determined using stopped-flow fluorescence. A representative binding reaction can be seen in Fig. 4B. The binding reactions were pseudo-first order in [PAP], and kobs values were obtained by fitting reaction progress curves to a single-exponential equation. On- and off-rate constants (see Table 3) are given by the plot slopes and intercepts.
Pre–steady-state binding of PAP to SULT1A3 was monitored via ligand-induced changes in SULT1A3 fluorescence using an Applied Photophysics SX20 stopped-flow spectrofluorometer. Fluorescence was measured at λex = 290 nm and λem ≥ 330 nm (using a cutoff filter). […] All reactions were pseudo first order with respect to [PAP]. kobs values, determined in triplicate at each PAP concentration, were obtained by least-squares fitting the average of five progress curves to a single-exponential equation. kon and koff, obtained by linear least-squares fitting, are given by the slopes and intercepts of four-point kobs-vs-[PAP] plots.

T1 sequence (P0DMM9 whole entry): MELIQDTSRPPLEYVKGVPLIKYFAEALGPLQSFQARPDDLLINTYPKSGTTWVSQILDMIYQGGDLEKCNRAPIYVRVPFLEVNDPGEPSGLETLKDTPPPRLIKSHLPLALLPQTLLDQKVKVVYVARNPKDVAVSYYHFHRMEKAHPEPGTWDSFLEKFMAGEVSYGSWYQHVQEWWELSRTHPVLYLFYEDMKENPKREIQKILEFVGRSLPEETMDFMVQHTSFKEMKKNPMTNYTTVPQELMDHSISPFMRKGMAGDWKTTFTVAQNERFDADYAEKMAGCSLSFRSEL

fold decrease of the PAP off-rate constant caused by inhibitor: ~14 fold
SMILES: CC(C)Cc1ccc2cc(/C=C/C(N)=O)cnc2n1 [CMP13]
